Results: ChEMBL document CHEMBL1909529, “Molecular dynamics simulations and MM/GBSA methods to investigate binding mechanisms of aminomethylpyrimidine inhibitors with DPP-IV” (Bioorg Med Chem Lett, 2011)

Target: Dipeptidyl peptidase 4 (Homo sapiens, UniProt P27487)
Assay: Inhibition of DPP4

Dipeptidyl peptidase 4, sequence (P27487 whole entry): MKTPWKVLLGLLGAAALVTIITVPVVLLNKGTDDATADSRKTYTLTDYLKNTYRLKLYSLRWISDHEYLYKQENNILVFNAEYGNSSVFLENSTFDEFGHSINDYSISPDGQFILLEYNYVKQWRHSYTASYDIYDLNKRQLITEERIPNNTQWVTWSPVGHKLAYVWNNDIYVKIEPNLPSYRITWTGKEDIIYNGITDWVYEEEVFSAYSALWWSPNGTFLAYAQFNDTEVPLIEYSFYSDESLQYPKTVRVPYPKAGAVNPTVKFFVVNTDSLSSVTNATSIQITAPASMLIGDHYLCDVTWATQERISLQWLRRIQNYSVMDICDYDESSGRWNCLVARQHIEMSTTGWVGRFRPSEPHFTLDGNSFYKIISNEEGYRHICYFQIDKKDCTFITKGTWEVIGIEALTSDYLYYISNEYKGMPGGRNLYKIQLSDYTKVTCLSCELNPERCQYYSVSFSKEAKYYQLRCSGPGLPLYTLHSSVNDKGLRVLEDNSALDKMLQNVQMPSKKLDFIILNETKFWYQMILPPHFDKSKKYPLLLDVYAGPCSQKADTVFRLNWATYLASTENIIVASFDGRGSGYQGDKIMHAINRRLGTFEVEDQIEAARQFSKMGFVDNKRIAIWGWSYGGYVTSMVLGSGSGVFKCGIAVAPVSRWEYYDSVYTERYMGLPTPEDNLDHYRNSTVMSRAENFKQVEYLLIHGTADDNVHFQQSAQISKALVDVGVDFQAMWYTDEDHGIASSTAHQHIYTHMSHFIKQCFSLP

NCc1c(N)nc(-c2cc(F)cc(F)c2)nc1-c1ccc(Cl)cc1Cl
IC50: 3 nM
